What was measured:
[1] = tested on: RARγ receptors relative to RARα receptors; assay: dissociation constants for RAR receptors (standard tests from cited references); format: binding, human; conditions: selectivity for RARγ relative to RARα
Method: The dissociation constants are determined by means of tests which are standard to those skilled in the art. These tests are described in particular in the following references: (1) “Selective Synthetic Ligands for Nuclear Retinoic Acid Receptor Subtypes” in RETINOIDS, Progress in Research and Clinical Applications, Chapter 19 (pp 261-267), Marcel Dekker Inc., published by Maria A. Livrea and Lester Packer; (2) “Synthetic Retinoids: Receptor Selectivity and Biological Activity” in Pharmacol. Skin, Basle, Karger, 1993, Volume 5, pp. 117-127; (3) “Selective Synthetic Ligands for Human Nuclear Retinoic Acid Receptors” in Skin Pharmacology, 1992, Vol. 5, pp. 57-65; (4) “Identification of Synthetic Retinoids with Selectivity for Human Nuclear Retinoic Acid Receptor-γ” in Biochemical and Biophysical Research Communications, Vol. 186, No. 2, July 1992, pp. 977-983; (5) “Selective High Affinity RAR-α or RAR-β Retinoic Acid Receptor Ligands” in Mol. Pharmacol., Vol. 40, pp. 556-562.
In an advantageous manner, the retinoids which are selective for the RARγ receptors relative to the RARα receptors have an RARα/RARγ dissociation constant ratio greater than or equal to 8.

keratinocytes = assay: keratinocyte proliferation, XTT assay (Cell proliferation kit II); format: cell-based

RARα/RARγ dissociation constant ratio [1] | SMILES | synergism of inhibition on keratinocyte proliferation (keratinocytes; in combination with 1,25-dihydroxyvitamin D3, identical conditions) | inhibition on keratinocyte proliferation (keratinocytes; in combination with 1,25-dihydroxyvitamin D3, 4 days culture, FIGS. 1 and 2)
36.6 | CC1(C)CCC(C)(C)c2cc(C(O)C#Cc3ccc(C(=O)O)c(O)c3)ccc21 (centres unmarked) [2-hydroxy-4-[3-hydroxy-3-(5,6,7,8-tetrahydro-5,5,8,8-tetramethyl-2-naphthyl)-1-propynyl]benzoic acid] |  | 
84.4 | COc1ccc(-c2ccc3cc(C(=O)O)ccc3c2)cc1C12CC3CC(CC(C3)C1)C2 [6-[3-(1-adamantyl)-4-methoxyphenyl]-2-naphthoic acid] |  | 
 | CC1=C(/C=C/C(C)=C/C=C/C(C)=C/C(=O)O)C(C)(C)CCC1 [all-trans retinoic acid, reference compound] | No synergism | 
8.5 | O=C(O)c1ccc2cc(-c3ccc(O)c(C45CC6CC(CC(C6)C4)C5)c3)ccc2c1 [compound 1, 6-[3-(1-adamantyl)-4-hydroxyphenyl]-2-naphthoic acid] |  | very good inhibition
